The subject of one data set is K562. Description: Cytotoxicity against human K562 cells assessed as reduction in cell growth by MTT assay. The data set is classed as functional, cell-based.
The test system of another data set is H69AR. Description: Cytotoxicity against human NCI-H69AR cells assessed as reduction in cell growth by MTT assay. The data set is classed as functional, cell-based.
The test system of the next data set is MDA-MB-231. Description: Cytotoxicity against human MDA-MB-231 cells assessed as reduction in cell growth by MTT assay. The data set is classed as functional, cell-based. On the technique in general: Tetrazolium assays rely on reduction of a dye to a coloured formazan, in cell work by metabolically active cells.
The nature of data set [1]: Cytotoxicity against human L02 cells assessed as reduction in cell growth by MTT assay. It counts as toxicity, cell-based.
In a further data set the test system is ASPC1. Kind of data set: Cytotoxicity against human ASPC1 cells assessed as reduction in cell growth by MTT assay. It counts as functional, cell-based.

What is called IC50 is the concentration at which inhibition is half-maximal. With `CC(=O)O[C@@H]1OC(=O)C=C1/C=C/[C@]1(C)C2=CC[C@H]3C(C)(C)CCC[C@]3(C)[C@H]2CC[C@@H]1C`, the IC50 in the data set with K562 is 4.38 µM; with H69AR, 16.3 µM; in the data set with MDA-MB-231, 23.2 µM; in data set [1] it was 7.21 µM.
Take `CO[C@H](C[C@]1(C)C2=CC[C@H]3C(C)(C)CCC[C@]3(C)[C@H]2CC[C@@H]1C)C1=CC(=O)O[C@H]1O`: the 50% inhibitory concentration (IC50) in the data set with K562 is 7.95 µM; in the data set with ASPC1, 4.71 µM; in the data set with H69AR it was 5.67 µM; in the data set with MDA-MB-231 it was 16 µM; in data set [1], 4.62 µM.
For `C[C@H]1CC[C@H]2C(=CC[C@H]3C(C)(C)CCC[C@]23C)[C@@]1(C)/C=C/C1=CC(=O)OC1O` (stereo partly drawn) the same measures were 11.6 µM, 22.4 µM, 25.7 µM, greater than 30 µM and 13.5 µM.
As to `C[C@@H]1CC[C@@H]2C(=CC[C@@H]3C(C)(C)CCC[C@@]23C)[C@]1(C)C[C@H](O)C1=CC(=O)OC1`, the IC50 (in the data set with K562; with ASPC1; in the data set with H69AR; in the data set with MDA-MB-231; in data set [1]) was greater than 30 µM each time.
`C=C(C)CCCC1=CCC[C@H](C)[C@]1(C)CCC1=CC(=O)OC1O` (stereo partly drawn): the IC50 in the data set with K562 is 15.1 µM; in the data set with ASPC1, greater than 30 µM; in the data set with H69AR, 21.1 µM; with MDA-MB-231, greater than 30 µM; in data set [1] it was 13.5 µM.
On to `CC(=O)O[C@H]1OC(=O)C=C1/C=C/[C@]1(C)C2=CC[C@H]3C(C)(C)CCC[C@]3(C)[C@H]2CC[C@@H]1C`, for which the concentration for half-maximal inhibition (IC50) was found to be 2.91 µM in the data set with K562, 14.9 µM in the data set with H69AR, 29 µM in the data set with MDA-MB-231 and 6.8 µM in data set [1].
For the compound `CC(C)=CCC[C@@]1(C)CCC=C2[C@@H]1CC[C@H](C)[C@]2(C)CCC1=CC(=O)OC1`, the IC50 (in the data set on K562; with ASPC1; in the data set on H69AR; with MDA-MB-231; in data set [1]) was greater than 30 µM in each case.
On to `CC1=CCC[C@@H](C)[C@@]1(C)CC/C(C)=C/CCC1=CC(=O)OC1`, for which the IC50 (in the data set on K562; in the data set with ASPC1; in the data set on H69AR; in the data set on MDA-MB-231; in data set [1]) was greater than 30 µM throughout.
Regarding `CC(=O)O[C@@H]1C[C@@H]2[C@@]3(C)CCCC(C)(C)[C@@H]3CC[C@@]2(C)[C@@H]2C[C@@H](O)C3=C([C@H](O)OC3=O)[C@@]12C`, the IC50 in the data set on K562 is 7.19 µM; in the data set on ASPC1, 17.9 µM; in the data set on H69AR, 27.5 µM; with MDA-MB-231, greater than 30 µM; in data set [1], 24.1 µM.
On the same counts, the results for `C[C@@H]1CC[C@@H]2C(=CC[C@H]3C(C)(C)CCC[C@@]23C)[C@]1(C)C[C@@H](O)C1=CC(=O)OC1` are 12.6 µM, greater than 30 µM, greater than 30 µM, greater than 30 µM and 11.6 µM.
Regarding `COc1cccc2c1C(=O)c1c(O)c3c(c(O)c1C2=O)C[C@@](O)(C(=O)CO)C[C@@H]3O[C@H]1C[C@H](N)[C@H](O)[C@H](C)O1` [DOXORUBICIN], the IC50 (in the data set on K562; in the data set with ASPC1; in the data set with H69AR; in the data set on MDA-MB-231; in data set [1]) was less than 1 µM throughout.
